# Source: article PMC8270334, “Design, Sustainable Synthesis and Biological Evaluation of a Novel Dual α2A/5-HT7 Receptor Antagonist with Antidepressant-Like Properties” (Molecules, 2021)
# Molecular target: T1, human 5-HT7b receptor (Homo sapiens, UniProt P34969)
# T1 construct: expressed in transfected cells; host or cells: HEK293
# Experiment: radioligand binding, [3H]-5-CT displacement at 5-HT7R in HEK293 cells
# Conditions: read-out: Ki [nM] ± SEM 5-HT7
# Description: All experiments were performed using HEK293 cells stably expressing human 5-HT1A, 5-HT6, 5-HT7b, and D2L receptors or CHO-K1 cells with a plasmid containing the human 5-HT2A receptor coding sequence (PerkinElmer, Waltham, MA, USA), according to previously reported procedures. Cells were cultured in 150 cm^2 flasks and, after reaching a 90% confluence, were washed with PBS and the centrifugated (200 g) in PBS containing 0.1 mM EDTA and 1 mM dithiothreitol. Cell pellets were subsequently homogenized (in Ultra Turrax tissue homogenizer) and centrifugated twice (35,000× g for 15 min at 4 °C), with 15 min incubation at 37 °C between the centrifugations. All assays were incubated in dedicated buffers and in a total volume of 200 µL in 96-well microtitre plates for 1 h at 37 °C, except for 5-HT1AR and 5-HT2AR that was incubated for 1 h at room temperature. The process of equilibration is terminated by rapid filtration through Unifilter-96 (PerkinElmer) plates with a 96-well cell harvester and radioactivity retained on the filters was quantified on a Microbeta plate reader (PerkinElmer, USA). For displacement studies, the following assay samples containing the proper radioligand were used: 2.5 nM [^3H]-8-OH-DPAT (PerkinElmer, #NET929001MC) for 5-HT1AR; 1 nM [^3H]-ketanserin (PerkinElmer, #NET791250UC) for 5-HT2AR; 2 nM [^3H]-LSD (PerkinElmer, #NET638250UC) for 5-HT6R; and 0.8 nM [^3H]-5-CT (PerkinElmer, #NET1188U100UC) for 5-HT7R or 2.5 nM [^3H]-raclopride (PerkinElmer, #NET975001MC) for D2LR. Non-specific binding was determined using 10 μM 5-HT for 5-HT1AR and 5-HT7R, 20 μM mianserin for 5-HT2AR, 10 μM methiothepine for 5-HT6R, and 10 μM haloperidol for D2LR. […] Results were expressed as means of at least three separate experiments.
# T1 sequence (P34969 1-432): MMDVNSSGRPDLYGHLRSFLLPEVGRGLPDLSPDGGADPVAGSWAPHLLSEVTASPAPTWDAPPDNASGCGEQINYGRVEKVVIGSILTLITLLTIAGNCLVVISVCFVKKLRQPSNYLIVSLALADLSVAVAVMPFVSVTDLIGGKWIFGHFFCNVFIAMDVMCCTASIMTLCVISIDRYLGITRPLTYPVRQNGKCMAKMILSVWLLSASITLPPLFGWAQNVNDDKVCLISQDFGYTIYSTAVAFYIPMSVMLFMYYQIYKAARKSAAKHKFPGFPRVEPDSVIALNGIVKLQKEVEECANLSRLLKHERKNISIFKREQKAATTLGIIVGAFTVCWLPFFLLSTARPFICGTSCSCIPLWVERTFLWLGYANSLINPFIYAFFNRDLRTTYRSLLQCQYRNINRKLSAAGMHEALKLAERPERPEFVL
row,SMILES,Ki [nM]
1,"CC1(C)Cc2cccc(OCCN3CCC(CNS(=O)(=O)c4ccc(F)cc4)CC3)c2O1 [Compound 14, 4-Fluoro-N-({1-[2-(2,2-dimethyl-2,3-dihydrobenzofuran-7-yloxy)ethyl]piperidin-4-yl}methyl)benzenesulfonamide]",727 ± 65
2,"CC1(C)Cc2cccc(OCCN3CCC(CNS(=O)(=O)c4cccc(Cl)c4)CC3)c2O1 [Compound 15, 3-Chloro-N-({1-[2-(2,2-dimethyl-2,3-dihydrobenzofuran-7-yloxy)ethyl]piperidin-4-yl}methyl)benzenesulfonamide]",664 ± 82
3,"COc1ccc(Cl)cc1S(=O)(=O)NCC1CCN(CCOc2cccc3c2OC(C)(C)C3)CC1 [Compound 17, 5-Chloro-2-methoxy-N-({1-[2-(2,2-dimethyl-2,3-dihydrobenzofuran-7-yloxy)ethyl]piperidin-4-yl}methyl)benzenesulfonamide]",488 ± 70
4,"CC1(C)Cc2cccc(OCCN3CCC(CNS(=O)(=O)c4cncc5ccccc45)CC3)c2O1 [Compound 19, 4-Isoquinoline-N-({1-[2-(2,2-dimethyl-2,3-dihydrobenzofuran-7-yloxy)ethyl]piperidin-4-yl}methyl)sulfonamide]",387 ± 58

# Further lines, results first:
row,Ki [nM],SMILES
1,366 ± 69,"CC1(C)Cc2cccc(OCCN3CCC(CNS(=O)(=O)c4cccc5ccccc45)CC3)c2O1 [Compound 18, 1-Naphthalene-N-({1-[2-(2,2-dimethyl-2,3-dihydrobenzofuran-7-yloxy)ethyl]piperidin-4-yl}methyl)sulfonamide]"
2,316 ± 73,CC1(C)Cc2cccc(OCCN3CCC(CNS(=O)(=O)c4cc(Cl)ccc4F)CC3)c2O1 [Compound 16]
3,95 ± 18,"COc1ccc(OC)c(S(=O)(=O)NC2CCN(CCOc3cccc4c3OC(C)(C)C4)CC2)c1 [Compound 10, 2,5-Dimethoxy-N-{1-[2-(2,2-dimethyl-2,3-dihydrobenzofuran-7-yloxy)ethy]piperidin-4-yl}benzenesulfonamide]"
4,86 ± 26,"COc1ccc(Cl)cc1S(=O)(=O)NC1CCN(CCOc2cccc3c2OC(C)(C)C3)CC1 [Compound 9, 5-Chloro-2-methoxy-N-{1-[2-(2,2-dimethyl-2,3-dihydrobenzofuran-7-yloxy)ethyl]piperidin-4-yl}benzenesulfonamide]"
5,67 ± 21,"CC1(C)Cc2cccc(OCCN3CCC(NS(=O)(=O)c4ccc5ccccc5c4)CC3)c2O1 [Compound 12, 2-Naphthalene-N-{1-[2-(2,2-dimethyl-2,3-dihydrobenzofuran-7-yloxy)ethyl]piperidin-4-yl}sulfonamide]"
6,64 ± 15,"CC1(C)Cc2cccc(OCCN3CCC(NS(=O)(=O)c4cccc(Cl)c4)CC3)c2O1 [Compound 7, 3-Chloro-N-{1-[2-(2,2-dimethyl-2,3-dihydrobenzofuran-7-yloxy)ethyl]piperidin-4-yl}benzenesulfonamide]"
7,50 ± 16,"CC1(C)Cc2cccc(OCCN3CCC(NS(=O)(=O)c4cccc5ccccc45)CC3)c2O1 [Compound 11, 1-Naphthalene-N-{1-[2-(2,2-dimethyl-2,3-dihydrobenzofuran-7-yloxy)ethyl]piperidin-4-yl}sulfonamide]"

# Test system: Albino Swiss mice
# Experiment: forced swim test
# Assay type: in vivo
# Conditions: ip, 30 min before test
# Description: Adult male Albino Swiss mice (CD-1, 8 weeks old, 25–30 g: Jagiellonian University Medical College, Krakow, Poland) were used in the study. Animals were housed in groups of 8 in a transparent plastic cage (382 × 220 × 150 mm) at room temperature (22 ± 2 °C), on a 12 h light/dark cycle with ad libitum access to food and water. Mice were handled for one week before starting the experimental procedures. The separate groups of animals were used in the forced swim test and in the locomotor studies. All studies were approved by the Institutional Animal Care and Ethics Committee of the Jagiellonian University (approval no.: 80/2015). […] Tested compounds were dissolved with 1% Tween 80. […] The control animals were given ip injections of the 2% DMSO in 1% Tween 80 (vehicle). The volume of vehicle or drug solutions was 10 mL/kg. The experiment was performed on mice according to the method previously described. Mice were forced to swim individually in the glass cylinders (height 25 cm, diameter 10 cm) filled with water at 24 ± 1 °C to a depth of 10 cm and left there for 6 min. Following a 2 min habituation period, total time spent immobile was recorded over the next 4 min. The animal was regarded as immobile when it remained floating passively in the water, making only small movements to keep its head above the water.
row,SMILES,active dose in FST (antidepressant-like effect) [mg/kg]
1,"CN1CCN2c3ncccc3Cc3ccccc3C2C1 (centres unmarked) [Mirtazapine, reference compound]",16

# Test system: Albino Swiss mice
# Experiment: spontaneous locomotor activity
# Assay type: in vivo
# Conditions: ip, doses effective in the FST (6: 4, 8 mg/kg; mirtazapine: 16 mg/kg)
# Description: Adult male Albino Swiss mice (CD-1, 8 weeks old, 25–30 g: Jagiellonian University Medical College, Krakow, Poland) were used in the study. Animals were housed in groups of 8 in a transparent plastic cage (382 × 220 × 150 mm) at room temperature (22 ± 2 °C), on a 12 h light/dark cycle with ad libitum access to food and water. Mice were handled for one week before starting the experimental procedures. The separate groups of animals were used in the forced swim test and in the locomotor studies. All studies were approved by the Institutional Animal Care and Ethics Committee of the Jagiellonian University (approval no.: 80/2015).
# Tested compounds were dissolved with 1% Tween 80. […] The control animals were given ip injections of the 2% DMSO in 1% Tween 80 (vehicle). The volume of vehicle or drug solutions was 10 mL/kg.
# Locomotor activity was recorded with an Opto M3 multichannel activity monitor, photoresistor actometers connected to a counter for the recording of light-beam interruptions (MultiDevice Software v1.3, Columbus Instruments, Columbus, OH, USA). The mice, after being placed into the cages individually, had their activity evaluated between the 2nd and the 6th minute. The chosen time period corresponded with the time interval considered in the FST. Spontaneous locomotor activity was evaluated as the distance travelled plus the movements of climbing by animals.
row,SMILES,influence on spontaneous locomotor activity (sedation)
1,"CN1CCN2c3ncccc3Cc3ccccc3C2C1 (centres unmarked) [Mirtazapine, reference compound]",induced sedation

# Molecular target: T1, human 5-HT7b receptor
# Experiment: not given
# Conditions: Figure 1, earlier lead; read-out: Ki (5-HT7R); cited from earlier work
row,SMILES,Ki [nM]
1,CC(C)Oc1ccccc1OCCN1CCC(NS(=O)(=O)c2ccc(F)cc2)CC1 [PZ-971],21
